Assay results taken from the NIST ThermoML archive (doi:10.1021/je200668a).
Where “and” joins values, the source holds several entries; their conditions need not be identical. Equal values may be shown once.

Conditions: Liquid, Pulse Transmission

O [water]
Conditions	speed of sound
252.47 K, 215100 kPa	1715.3 m/s
252.47 K, 220000 kPa	1725.1 m/s
252.5 K, 205200 kPa	1695.9 m/s
252.5 K, 209900 kPa	1705.2 m/s
252.5 K, 215300 kPa	1716.8 m/s
252.5 K, 240000 kPa	1764.3 m/s
252.51 K, 220200 kPa	1726.7 m/s
252.51 K, 235100 kPa	1754.9 m/s
252.51 K, 245400 kPa	1774.8 m/s
252.52 K, 210100 kPa	1705.8 m/s and 1706 m/s
252.52 K, 244900 kPa	1773.9 m/s
252.53 K, 200100 kPa	1685.4 m/s
252.53 K, 204800 kPa	1695.3 m/s
252.53 K, 215300 kPa	1716.3 m/s
252.53 K, 225100 kPa	1735.1 m/s
252.53 K, 230000 kPa	1745 m/s and 1745.4 m/s
252.53 K, 240100 kPa	1764.5 m/s
252.54 K, 235200 kPa	1755.1 m/s
252.54 K, 239200 kPa	1762.7 m/s
252.54 K, 245000 kPa	1774.1 m/s
252.55 K, 225000 kPa	1736.1 m/s
252.56 K, 204900 kPa	1695.4 m/s
252.57 K, 198900 kPa	1683.1 m/s
252.57 K, 199400 kPa	1684.1 m/s
252.57 K, 229900 kPa	1744.6 m/s
252.57 K, 235200 kPa	1754.8 m/s
252.59 K, 225100 kPa	1735.8 m/s
252.61 K, 220300 kPa	1726.3 m/s
257.59 K, 225300 kPa	1755 m/s
257.6 K, 175100 kPa	1654.5 m/s
257.61 K, 199500 kPa	1703.9 m/s
257.61 K, 275200 kPa	1847.7 m/s
257.62 K, 274400 kPa	1845.4 m/s
257.64 K, 250200 kPa	1801.3 m/s
257.65 K, 224100 kPa	1752.6 m/s
257.65 K, 276100 kPa	1848.6 m/s
257.66 K, 199900 kPa	1705.5 m/s
257.66 K, 299900 kPa	1889.6 m/s
257.67 K, 249400 kPa	1799.8 m/s
257.67 K, 299700 kPa	1889.4 m/s
257.67 K, 300200 kPa	1890.9 m/s
257.67 K, 374600 kPa	2011.2 m/s
257.68 K, 325400 kPa	1932.5 m/s
257.68 K, 375300 kPa	2012.5 m/s
257.69 K, 176400 kPa	1657.4 m/s
257.69 K, 199600 kPa	1704.5 m/s
257.69 K, 249500 kPa	1800.5 m/s
257.69 K, 349300 kPa	1972.1 m/s
257.69 K, 350000 kPa	1972.9 m/s
257.7 K, 176200 kPa	1657.4 m/s
257.7 K, 224600 kPa	1754 m/s
257.7 K, 325000 kPa	1928.5 m/s
257.7 K, 325400 kPa	1932.5 m/s
262.63 K, 299800 kPa	1906 m/s
262.65 K, 224800 kPa	1771.8 m/s
262.68 K, 250600 kPa	1820.4 m/s
262.71 K, 324500 kPa	1944.4 m/s
262.71 K, 349400 kPa	1982.7 m/s
262.71 K, 399900 kPa	2060 m/s
262.72 K, 274600 kPa	1861.2 m/s
262.72 K, 374300 kPa	2023.2 m/s
262.72 K, 424300 kPa	2095.3 m/s
262.73 K, 249700 kPa	1816.5 m/s
262.73 K, 299400 kPa	1903.1 m/s
262.73 K, 324600 kPa	1945.1 m/s
262.73 K, 349600 kPa	1984.2 m/s
262.74 K, 124100 kPa	1574.1 m/s
262.74 K, 199800 kPa	1725.4 m/s
262.74 K, 299600 kPa	1903.2 m/s
262.74 K, 425600 kPa	2097.8 m/s
262.74 K, 449400 kPa	2130.8 m/s
262.74 K, 450500 kPa	2133 m/s
262.75 K, 274500 kPa	1860.6 m/s
262.76 K, 148400 kPa	1623.4 m/s
262.76 K, 150700 kPa	1629.8 m/s
262.76 K, 199800 kPa	1724.8 m/s
262.76 K, 224600 kPa	1772.3 m/s
262.76 K, 251000 kPa	1819.5 m/s
262.76 K, 350600 kPa	1986.4 m/s
262.76 K, 375100 kPa	2023 m/s
262.76 K, 399300 kPa	2058.1 m/s
262.77 K, 126300 kPa	1578.6 m/s
262.77 K, 174800 kPa	1677.2 m/s and 1676.9 m/s
262.78 K, 399700 kPa	2061.2 m/s
262.81 K, 149800 kPa	1626.1 m/s
262.81 K, 200800 kPa	1728.7 m/s
267.77 K, 199500 kPa	1744.1 m/s
267.78 K, 100800 kPa	1554.9 m/s
267.78 K, 300400 kPa	1918.4 m/s
267.78 K, 349700 kPa	1997.2 m/s
267.79 K, 149600 kPa	1649.8 m/s and 1648.8 m/s
267.79 K, 399600 kPa	2070.9 m/s
267.79 K, 500400 kPa	2208.8 m/s
267.8 K, 249400 kPa	1833.6 m/s
267.8 K, 449300 kPa	2141.5 m/s
267.81 K, 98500 kPa	1551.2 m/s
267.82 K, 400000 kPa	2071.6 m/s
267.84 K, 100500 kPa	1554.9 m/s
267.84 K, 199500 kPa	1744.6 m/s
267.84 K, 450700 kPa	2144.1 m/s
267.84 K, 500100 kPa	2209.7 m/s
267.85 K, 299400 kPa	1918.6 m/s
267.86 K, 399700 kPa	2071.2 m/s
267.87 K, 249600 kPa	1835 m/s
267.87 K, 251100 kPa	1837.5 m/s
267.87 K, 349700 kPa	1997.5 m/s
267.87 K, 449200 kPa	2142.4 m/s
267.88 K, 150800 kPa	1652.5 m/s
267.88 K, 299600 kPa	1919.3 m/s
